The structures appear in SMILES notation.

This test addresses T1, human leukocytic elastase (HLE) (Homo sapiens, UniProt P08246).
T1 sequence (P08246 30-267): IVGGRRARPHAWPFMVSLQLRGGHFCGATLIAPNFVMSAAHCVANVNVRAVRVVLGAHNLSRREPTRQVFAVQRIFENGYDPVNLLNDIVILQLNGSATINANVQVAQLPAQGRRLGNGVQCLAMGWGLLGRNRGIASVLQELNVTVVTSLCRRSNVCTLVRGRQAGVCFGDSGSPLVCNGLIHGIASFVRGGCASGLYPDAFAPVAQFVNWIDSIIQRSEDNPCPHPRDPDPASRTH
Description: Inhibition of human leukocytic elastase, kinetics of p-nitroaniline release at 410 nm. The format is biochemical. To be noted: read-out: percentage of inhibition of the anti-elastase activity after 10 min. The protocol:
A test to ascertain the activity of a polar lipid mixture in accordance with the invention on the inhibition of a specific enzyme, human leukocytic elastase (HLE), was carried out at the Connective Tissue Laboratory of the CNRS at Cretail (France). HLE is able to destroy elastin and therefore cause cell aging. HLE also detrimentally effects the arterial walls.
The activity of the mixture in accordance with the invention was compared with that of oleic acid, the reference substance.
This test measures the inhibition of the enzymatic activity by different preparations tested by following the kinetics at 410 nm of the degradation of a substrate, S, corresponding essentially to elastin: Me-O-Suc-Ala2 -Pro-Val-pNa(N-Methoxy-succinyl-Ala-Ala-Pro-Val-p-Nitroanilide). In this test, changes in the concentration of p-Nitroaniline, released due to the effect of the activity of HLE on the substrate, S, is measured over time.
In order to carry out these tests:
either 0.1M Tris-Cl+0.01% Triton X-100 at pH 8
was used as the reaction buffer, B. […]
Spectrophotometer readings were taken at 410 nm relative to the p-Nitroaniline concentration and the results obtained were then transferred to Curves 1 to 5, which correspond to the cell samples of the same numbering. […]
On each of these curves, the time in min was recorded on the abscissa and the optical deviation, OD, read at 410 nm, was recorded on the ordinate. […]

Broadly, the inhibition is the drop in the measured response relative to a control, in per cent. Regarding `CCCCCCCC/C=C\CCCCCCCC(=O)O` [Reference oleic acid, oleic acid], the inhibition at 0.1 µg/mL (oleic acid at 0.1 μg/ml) was 36%. Further, for the setting “oleic acid at 1.0 μg/ml”, the inhibition at 1 µg/mL is 84%.

Source of the values: patent US5817646A, “Polar lipid composition of plant origin” (Laboratoires Inocosm, priority 1991, dated 1998).
